Measured values: patent US7943184B2, “Process for preparing an extract from ivy leaves” (Engelhard Arzneimittel GmbH & Co. KG, priority 2003, dated 2011)

Key:
[1] = Absorption study by means of the biopharmaceutics classification system (BCS); format: in vitro ADME
Experimental: It was possible to show in an absorption study by means of the biopharmaceutics classification system (BCS) that α-hederin is to be attributed with a moderate absorption (10-90%). […] Absorption studies were carried out on rats for this purpose.

[2] = Absorption studies on rats: α-hederin plasma concentration after i.v. or oral administration of ivy leaf extracts; format: in vivo; conditions: all samples after i.v. or p.o. administration of extract A or B
Text: The influence of administration of two different extracts on the plasma concentration of α-hederin was subsequently investigated. The change in the plasma concentration of α-hederin with a single administration compared with multiple administration of the extract and with different blood sampling times after administration was also investigated, as was the α-hederin absorption rate. Two extracts whose saponin distribution is shown in Table 1 below were selected for this purpose:
For intravenous administration, the required amount of extract was dissolved in 11% (m/m) ethanol, filtered and injected. It was aimed to administer a volume of 2 ml of extract solution (dose in each case [mg/kg of bodyweight]: 25). A blood sample was taken from the animals 5 minutes after the administration. About 2 ml of whole blood with added EDTA for anticoagulation were required for each sample.
Suspensions of the extracts in glycerol were prepared for oral administration. The animals were gavaged with about 2 ml of these suspensions (dose in each case [mg/kg of bodyweight]: 1000 and 166.66). 2 ml of blood were taken from each of the animals 1 and 3 hours after the last administration in each case.
The total saponin content takes account of the molar masses of the two constituents and is based on α-hederin. The total saponin content in extract A in this case was 9.8%, based on α-hederin. […]

smooth muscles = assay: Spasmolytic activity / relaxation of smooth muscles; conditions: via binding to β-adrenergic receptors; recent studies by the applicant

Row | permeation through the membranes ([1]; same conditions as BCS absorption study) | Hederacoside C in plasma samples [2] | absorption (BCS) ([1]; biopharmaceutics classification system, moderate absorption) | Compound | relaxation of smooth muscles (smooth muscles)
1 | did not permeate through the membranes | not detectable |  | C[C@@H]1O[C@@H](O[C@H]2[C@H](O[C@H]3CC[C@@]4(C)[C@@H](CC[C@]5(C)[C@@H]4CC=C4[C@@H]6CC(C)(C)CC[C@]6(C(=O)O[C@@H]6O[C@H](CO[C@@H]7O[C@H](CO)[C@@H](O[C@@H]8O[C@@H](C)[C@H](O)[C@@H](O)[C@H]8O)[C@H](O)[C@H]7O)[C@@H](O)[C@H](O)[C@H]6O)CC[C@]45C)[C@]3(C)CO)OC[C@H](O)[C@@H]2O)[C@H](O)[C@H](O)[C@H]1O [hederacoside C] | 
2 |  |  | 10-90% | C[C@@H]1O[C@@H](O[C@H]2[C@H](O[C@H]3CC[C@@]4(C)[C@@H](CC[C@]5(C)[C@@H]4CC=C4[C@@H]6CC(C)(C)CC[C@]6(C(=O)O)CC[C@]45C)[C@]3(C)CO)OC[C@H](O)[C@@H]2O)[C@H](O)[C@H](O)[C@H]1O [α-hederin] | causes relaxation of smooth muscles
